This test addresses T1, AR protein in VCaP cells (Homo sapiens, UniProt P10275).
T1 construct: endogenous in cells; host or cells: VCaP cells
T1 sequence (P10275 1-920): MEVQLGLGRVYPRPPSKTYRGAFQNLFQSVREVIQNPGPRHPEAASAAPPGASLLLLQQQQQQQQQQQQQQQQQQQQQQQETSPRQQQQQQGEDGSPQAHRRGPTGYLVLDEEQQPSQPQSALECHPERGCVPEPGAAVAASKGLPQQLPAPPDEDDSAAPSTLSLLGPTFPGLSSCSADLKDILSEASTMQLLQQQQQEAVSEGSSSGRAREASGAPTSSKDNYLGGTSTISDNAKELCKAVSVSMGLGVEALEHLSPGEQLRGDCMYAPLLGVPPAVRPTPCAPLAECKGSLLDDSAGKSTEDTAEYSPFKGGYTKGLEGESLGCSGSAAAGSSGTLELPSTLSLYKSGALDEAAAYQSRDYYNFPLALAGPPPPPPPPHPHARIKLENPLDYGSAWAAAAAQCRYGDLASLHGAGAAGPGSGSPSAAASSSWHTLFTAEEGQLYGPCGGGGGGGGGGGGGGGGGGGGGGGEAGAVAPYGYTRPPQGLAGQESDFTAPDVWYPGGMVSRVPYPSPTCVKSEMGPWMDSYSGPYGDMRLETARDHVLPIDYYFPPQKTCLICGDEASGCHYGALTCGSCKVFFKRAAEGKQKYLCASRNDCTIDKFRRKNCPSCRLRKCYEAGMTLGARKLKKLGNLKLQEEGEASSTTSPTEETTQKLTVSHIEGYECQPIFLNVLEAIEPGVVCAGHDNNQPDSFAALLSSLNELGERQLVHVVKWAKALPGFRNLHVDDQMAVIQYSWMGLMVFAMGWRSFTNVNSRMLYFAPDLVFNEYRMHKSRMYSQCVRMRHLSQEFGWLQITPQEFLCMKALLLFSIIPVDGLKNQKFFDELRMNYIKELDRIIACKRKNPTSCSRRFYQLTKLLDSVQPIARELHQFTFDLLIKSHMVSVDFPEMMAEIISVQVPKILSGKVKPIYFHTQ
The test can be described thus: VCAP AR Degradation Assay (AR ELISA, 24 h). It counts as cell-based. The note with it: for Y (lowest measured AR level normalized to DMSO control): AR degradation efficiency; for DC50: concentration of compound when AR level = 50% of DMSO control, read-out: DC50. The gist of the method:
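VCaP cells in DMEM with 8% FBS exposed for 24 h at 37° C to a 10-point, 1:3 series (final top concentration […]; 0.1% DMSO control). Lysate AR measured by sandwich ELISA and normalized to DMSO as percent of control. DC50, EC50 and lowest AR level (Y) from four-parameter logistic fit.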
Background: In an ELISA, binding on a coated surface is turned into a signal by an enzyme label.

As usually defined, the DC50 is the concentration at which degradation of the target reaches its halfway point. In the case of `CC(F)(F)c1cc(N2C(=S)N(c3cnc(C#N)c(C(F)(F)F)c3)C(=O)C2(C)C)ccc1OCCC1CCN(CC(=O)Nc2cc(Cl)cc(NC3CCC(=O)NC3=O)c2)CC1` (stereo not shown) [Cmpd 24, N-(3-chloro-5-(2,6-dioxopiperidin-3-ylamino)phenyl)-2-(4-(2-(4-(3-(6-cyano-5-(trifluoromethyl)pyridin-3-yl)-5,5-dimethyl-4-oxo-2-thioxoimidazolidin-1-yl)-2-(1,1-difluoroethyl)phenoxy)ethyl)piperidin-1-yl)acetamide], the “Y (lowest measured AR level normalized to DMSO control)” value is recorded as “* (0<Y<=25%)” and the half-maximal degradation concentration (DC50) was 0.1 to 0.5 µM.

Regarding `CC1(C)C(=O)N(c2ccc(C#N)c(C(F)(F)F)c2)C(=S)N1c1ccc(OCC2CCN(CC(=O)Nc3cc(Cl)cc(NC4CCC(=O)NC4=O)c3)CC2)c(Cl)c1` (stereo not shown) [Cmpd 9, 2-(4-((2-chloro-4-(3-(4-cyano-3-(trifluoromethyl)phenyl)-5,5-dimethyl-4-oxo-2-thioxoimidazolidin-1-yl)phenoxy)methyl)piperidin-1-yl)-N-(3-chloro-5-(2,6-dioxopiperidin-3-ylamino)phenyl)acetamide], the “Y (lowest measured AR level normalized to DMSO control)” value was “*** (35%<Y<50%)” and the half-maximal degradation concentration (DC50) lay within 0.5 to 1 µM.

As for `CCc1cc(N2C(=S)N(c3ccc(C#N)c(C(F)(F)F)c3)C(=O)C2(C)C)ccc1OCCC1CCN([C@@H](C)C(=O)Nc2cccc(NC3CCC(=O)NC3=O)c2)CC1` (stereo partly drawn) [Cmpd 41, (2S)-2-(4-(2-(4-(3-(4-cyano-3-(trifluoromethyl)phenyl)-5,5-dimethyl-4-oxo-2-thioxoimidazolidin-1-yl)-2-ethylphenoxy)ethyl)piperidin-1-yl)-N-(3-(2,6-dioxopiperidin-3-ylamino)phenyl)propanamide], the “Y (lowest measured AR level normalized to DMSO control)” value was “* (0<Y<=25%)” and the 50% degradation concentration (DC50) is < 0.1 µM.

For the molecule `CCc1cc(N2C(=S)N(c3cnc(C#N)c(C(F)(F)F)c3)C(=O)C2(C)C)ccc1OCCC1CCN(C2(C(=O)Nc3cc(Cl)cc(NC4CCC(=O)NC4=O)c3)CC2)CC1` (stereo not shown) [Cmpd 34, N-(3-chloro-5-(2,6-dioxopiperidin-3-ylamino)phenyl)-1-(4-(2-(4-(3-(6-cyano-5-(trifluoromethyl)pyridin-3-yl)-5,5-dimethyl-4-oxo-2-thioxoimidazolidin-1-yl)-2-ethylphenoxy)ethyl)piperidin-1-yl)cyclopropanecarboxamide], the “Y (lowest measured AR level normalized to DMSO control)” value was “*** (35%<Y<50%)” and the 50% degradation concentration (DC50) fell in the range of 0.5 to 1 µM.

In the case of `C[C@H](C(=O)Nc1cccc(NC2CCC(=O)NC2=O)c1)N1CCC(CCOc2ccc(N3C(=S)N(c4cnc(C#N)c(C(F)(F)F)c4)C(=O)C3(C)C)cc2CCF)CC1` (stereo partly drawn) [Cmpd 72, (2R)-2-(4-(2-(4-(3-(6-cyano-5-(trifluoromethyl)pyridin-3-yl)-5,5-dimethyl-4-oxo-2-thioxoimidazolidin-1-yl)-2-(2-fluoroethyl)phenoxy)ethyl)piperidin-1-yl)-N-(3-(2,6-dioxopiperidin-3-ylamino)phenyl)propanamide], the “Y (lowest measured AR level normalized to DMSO control)” value was “* (0<Y<=25%)” and the DC50 was < 0.1 µM.

As to `CC(C)c1cc(N2C(=S)N(c3ccc(C#N)c(C(F)(F)F)c3)C(=O)C2(C)C)ccc1OCC[C@@H]1CCN(CC(=O)Nc2cccc(NC3CCC(=O)NC3=O)c2)[C@H](C)C1` (stereo partly drawn) [Cmpd 91, 2-((2R,4R)-4-(2-(4-(3-(4-cyano-3-(trifluoromethyl)phenyl)-5,5-dimethyl-4-oxo-2-thioxoimidazolidin-1-yl)-2-isopropylphenoxy)ethyl)-2-methylpiperidin-1-yl)-N-(3-(2,6-dioxopiperidin-3-ylamino)phenyl)acetamide], the “Y (lowest measured AR level normalized to DMSO control)” value is “** (25%<Y<=35%)” and the DC50 was 0.5 to 1 µM.

For `CCc1cc(N2C(=S)N(c3cnc(C#N)c(C(F)(F)F)c3)C(=O)C2(C)C)ccc1OCCC1CCN(CC(=O)Nc2cc(C#N)cc(NC3CCC(=O)NC3=O)c2)CC1` (stereo not shown) [Cmpd 39, N-(3-cyano-5-(2,6-dioxopiperidin-3-ylamino)phenyl)-2-(4-(2-(4-(3-(6-cyano-5-(trifluoromethyl)pyridin-3-yl)-5,5-dimethyl-4-oxo-2-thioxoimidazolidin-1-yl)-2-ethylphenoxy)ethyl)piperidin-1-yl)acetamide], the “Y (lowest measured AR level normalized to DMSO control)” value is “** (25%<Y<=35%)” and the DC50 was < 0.1 µM.

For the molecule `CC1(C)C(=O)N(c2ccc(C#N)c(C(F)(F)F)c2)C(=S)N1c1ccc(OCCC2CCN(CC(=O)Nc3cccc(NC4CCC(=O)NC4=O)c3)CC2)c(Cl)c1` (stereo not shown) [Cmpd 4, 2-(4-(2-(2-chloro-4-(3-(4-cyano-3-(trifluoromethyl)phenyl)-5,5-dimethyl-4-oxo-2-thioxoimidazolidin-1-yl)phenoxy)ethyl)piperidin-1-yl)-N-(3-(2,6-dioxopiperidin-3-ylamino)phenyl)acetamide], the “Y (lowest measured AR level normalized to DMSO control)” value was “** (25%<Y<=35%)” and the DC50 was in the range of 0.1 to 0.5 µM.

As for `CCc1cc(N2C(=S)N(c3ccc(C#N)c(C(F)(F)F)c3)C(=O)C23CCC3)ccc1OCCC1CCN([C@@H](C)C(=O)Nc2cc(Cl)cc(NC3CCC(=O)NC3=O)c2)CC1` (stereo partly drawn) [Cmpd 32, (2S)-N-(3-chloro-5-(2,6-dioxopiperidin-3-ylamino)phenyl)-2-(4-(2-(4-(7-(4-cyano-3-(trifluoromethyl)phenyl)-8-oxo-6-thioxo-5,7-diazaspiro[3.4]octan-5-yl)-2-ethylphenoxy)ethyl)piperidin-1-yl)propanamide], the “Y (lowest measured AR level normalized to DMSO control)” value is on record as “** (25%<Y<=35%)” and the DC50 was in the range of 0.1 to 0.5 µM.

In the case of `CCc1cc(N2C(=S)N(c3ccc(C#N)c(C(F)(F)F)c3)C(=O)C2(C)C)ccc1OCCC1CCN([C@H](C)C(=O)Nc2cc(Cl)cc(NC3CCC(=O)NC3=O)c2)CC1` (stereo partly drawn) [Cmpd 21, (2R)-N-(3-chloro-5-(2,6-dioxopiperidin-3-ylamino)phenyl)-2-(4-(2-(4-(3-(4-cyano-3-(trifluoromethyl)phenyl)-5,5-dimethyl-4-oxo-2-thioxoimidazolidin-1-yl)-2-ethylphenoxy)ethyl)piperidin-1-yl)propanamide], the “Y (lowest measured AR level normalized to DMSO control)” value is listed as “* (0<Y<=25%)” and the half-maximal degradation concentration (DC50) is 0.1 to 0.5 µM.

For the molecule `CCc1cc(N2C(=S)N(c3ccc(C#N)c(C(F)(F)F)c3)C(=O)C23CCC3)ccc1OCCC1CCN([C@H](C)C(=O)Nc2cc(NC3CCC(=O)NC3=O)ccc2F)CC1` (stereo partly drawn) [Cmpd 75, (2R)-2-(4-(2-(4-(7-(4-cyano-3-(trifluoromethyl)phenyl)-8-oxo-6-thioxo-5,7-diazaspiro[3.4]octan-5-yl)-2-ethylphenoxy)ethyl)piperidin-1-yl)-N-(5-(2,6-dioxopiperidin-3-ylamino)-2-fluorophenyl)propanamide], the “Y (lowest measured AR level normalized to DMSO control)” value is “** (25%<Y<=35%)” and the DC50 lay within 0.1 to 0.5 µM.

On to `CCc1cc(N2C(=S)N(c3cnc(C#N)c(C(F)(F)F)c3)C(=O)C2(C)C)ccc1OCCC1(C)CCN(CC(=O)Nc2cccc(NC3CCC(=O)NC3=O)c2)CC1` (stereo not shown) [Cmpd 61, 2-(4-(2-(4-(3-(6-cyano-5-(trifluoromethyl)pyridin-3-yl)-5,5-dimethyl-4-oxo-2-thioxoimidazolidin-1-yl)-2-ethylphenoxy)ethyl)-4-methylpiperidin-1-yl)-N-(3-(2,6-dioxopiperidin-3-ylamino)phenyl)acetamide], for which the “Y (lowest measured AR level normalized to DMSO control)” value was “* (0<Y<=25%)” and the 50% degradation concentration (DC50) is < 0.1 µM.

In the case of `CCc1cc(N2C(=S)N(c3ccc(C#N)c(C(F)(F)F)c3)C(=O)C2(C)C)ccc1OCCC1CCN(CC(=O)Nc2cc(C#N)cc(NC3CCC(=O)NC3=O)c2)CC1` (stereo not shown) [Cmpd 40, 2-(4-(2-(4-(3-(4-cyano-3-(trifluoromethyl)phenyl)-5,5-dimethyl-4-oxo-2-thioxoimidazolidin-1-yl)-2-ethylphenoxy)ethyl)piperidin-1-yl)-N-(3-cyano-5-(2,6-dioxopiperidin-3-ylamino)phenyl)acetamide], the “Y (lowest measured AR level normalized to DMSO control)” value was “** (25%<Y<=35%)” and the half-maximal degradation concentration (DC50) lay in the range of 0.1 to 0.5 µM.

As for `CC1(C)C(=O)N(c2ccc(C#N)c(C(F)(F)F)c2)C(=S)N1c1ccc(OCCC2CCN(CC(=O)Nc3cccc(NC4CCC(=O)NC4=O)c3)CC2)c(CCF)c1` (stereo not shown) [Cmpd 48, 2-(4-(2-(4-(3-(4-cyano-3-(trifluoromethyl)phenyl)-5,5-dimethyl-4-oxo-2-thioxoimidazolidin-1-yl)-2-(2-fluoroethyl)phenoxy)ethyl)piperidin-1-yl)-N-(3-(2,6-dioxopiperidin-3-ylamino)phenyl)acetamide], the “Y (lowest measured AR level normalized to DMSO control)” value is “* (0<Y<=25%)” and the DC50 was < 0.1 µM.

For the origin of these results see patent publication US11325889B2, “Substituted 3-((3-aminophenyl)amino)piperidine-2,6-dione compounds, compositions thereof, and methods of treatment therewith” (Celgene Corporation, priority 2018, dated 2022).
